Experimental findings from patent publication US11261183B2, “Sulfoximine glycosidase inhibitors” (Asceneuron SA, priority 2016, dated 2022) are described below.

Series [1] deals with Human O-GlcNAcase (His-Tagged hOGA) (Homo sapiens (Human), UniProt O60502). Kind of series: Human O-GlcNAcase enzyme inhibition assay. It is filed as biochemical. Particulars: His-Tagged hOGA 20 nM, FL-GlcNAc 10 μM, 60 min, room temperature, pH 6.5; read-out: Enzymatic OGA IC50. Here is the method:
Example B01: Human O-GlcNAcase enzyme inhibition assay
5 μl of the appropriate concentration of a solution of inhibitor in McIlvaine's Buffer (pH 6.5) in 2% DMSO (for a dose response curve calculation) is added into each well of a 384-well plate (Greiner, 781900). Then, 20 nM of His-Tagged hOGA and 10 μM of FL-GlcNAc (Fluorescein mono-beta-D-(2-deoxy-2-N-acetyl) glucopyranoside; Marker Gene Technologies Inc, M1485) were added to the 384-well plate for a final volume of 20 μl. After incubation for 60 min at room temperature, the reaction was terminated by the addition of 10 μL of stop buffer (200 mM glycine, pH 10.75).

A short description of series [2]: Protein binding in mice plasma using Rapid Equilibrium Dialysis. The class given is in vitro ADME, CD1 mice. Particulars: 37° C.; for % fraction unbound in mouse plasma: CD1 mouse plasma, 5 hours; for fraction unbound at 5 h, 1 µM: male, CD1, mouse, plasma, pH 7.4, CD1 mouse plasma. The protocol:
Example B04: Protein binding in mice plasma using Rapid Equilibrium Dialysis
• CD1 Mice Plasma: pooled male, K2-EDTA ([…]2, Bioreclammation, USA • Phosphate Buffered Saline (1×PBS), pH 7.4, 100 mM (Sigma, Cat No. P4417) • RED inserts (Pierce, Cat No. 9006, 8 kDa MWCO) • Sample Analysis: LC-MS/MS Methods • Preparation of DMSO Stock Solution
From 20 mM DMSO stock solutions of reference and test compounds, 1 mM DMSO intermediate working solutions are prepared. From 1 mM intermediate working solutions, 100 μM DMSO working solutions are prepared. • Sample Preparation Procedure:
Selected plasma is brought from −20° C. to 37° C. using water bath before its use. Test solution is prepared by adding the DMSO working solution of the reference or test compound (2 μL; 100 μM) to the selected plasma (198 μL). Spiked plasma (200 μl) is transferred to sample compartment of RED insert placed in the teflon plate. 350 μl of 1×PBS is added in the buffer compartment of RED insert. The teflon plate is covered with sealing mat and agitated at 37° C. for 5 hours at 500 RPM in a Thermomixer. After incubation time, an aliquot of plasma (50 μl) from sample compartment is mixed with blank 1×PBS (50 μl). Similarly, an aliquot of buffer (50 μl) from buffer compartment is mixed with blank plasma (50 μl). Quenching solution (200 μL, acetonitrile containing internal standard tolbutamide (0.5 μg/mL)) is added and the resulting solutions are mixed using a vortex mixer and centrifuged (Eppendorf 5415, 13792 g). Supernatants are analyzed using a Mass Spectrometer. The sample (supernatant fraction, 5 μL) is injected into the LC-MS/MS instrument. • Chromatographic Conditions: LC-MS/MS: API 4000 LC-MS/MS Software: Analyst Version 1.6.1 Column Phenomenex Synergy 30*4.6*5μ Column Oven: 40° C. Mode: ESI Positive Injection volume: 5 μl Flow Rate: […] Buffer: 0.1% Formic acid in Water Method: Isocratic Method/Gradient Composition: A) 0.1% Formic acid in Water B) 0.1% Formic acid in Methanol
After the concentration of free drug and total drug has been determined by LCMS/MS, percent plasma protein binding can be calculated as follows:
[formula] Following this protocol, % fraction unbound in plasma from different species can be also measured.

Sequence of Human O-GlcNAcase (His-Tagged hOGA) (O60502 whole entry): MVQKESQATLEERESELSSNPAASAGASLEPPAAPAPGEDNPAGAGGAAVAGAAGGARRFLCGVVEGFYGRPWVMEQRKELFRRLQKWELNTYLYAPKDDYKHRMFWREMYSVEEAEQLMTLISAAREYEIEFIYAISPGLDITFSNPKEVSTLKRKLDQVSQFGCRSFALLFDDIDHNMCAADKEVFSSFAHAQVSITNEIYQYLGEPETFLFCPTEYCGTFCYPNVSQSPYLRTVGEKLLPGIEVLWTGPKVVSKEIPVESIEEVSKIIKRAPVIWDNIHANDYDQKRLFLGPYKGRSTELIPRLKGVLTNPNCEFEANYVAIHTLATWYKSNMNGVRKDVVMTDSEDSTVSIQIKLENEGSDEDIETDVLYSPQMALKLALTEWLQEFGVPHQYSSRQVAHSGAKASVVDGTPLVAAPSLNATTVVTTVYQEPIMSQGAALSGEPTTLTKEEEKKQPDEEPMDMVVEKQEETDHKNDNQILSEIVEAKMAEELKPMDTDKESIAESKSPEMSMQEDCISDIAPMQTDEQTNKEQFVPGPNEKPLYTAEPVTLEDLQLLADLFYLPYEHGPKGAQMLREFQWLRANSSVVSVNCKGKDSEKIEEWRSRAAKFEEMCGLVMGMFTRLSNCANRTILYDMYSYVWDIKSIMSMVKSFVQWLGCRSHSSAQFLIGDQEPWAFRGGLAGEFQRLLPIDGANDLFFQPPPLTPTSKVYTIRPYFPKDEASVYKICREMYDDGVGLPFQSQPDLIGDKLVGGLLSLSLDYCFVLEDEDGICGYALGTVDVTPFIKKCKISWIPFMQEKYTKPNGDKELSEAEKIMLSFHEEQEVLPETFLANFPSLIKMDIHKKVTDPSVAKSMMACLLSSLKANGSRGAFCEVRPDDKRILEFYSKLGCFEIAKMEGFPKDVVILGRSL

On to `CC(c1ccc2c(c1)OCC2)N1CCN(c2ncc(S(C)(=N)=O)cn2)CC1` (single isomer, unassigned) [Example 14], for which the IC50 in series [1] was under 50 nM. For the same compound, the “% fraction unbound in mouse plasma” value in series [2] is 35.63%.

Regarding `COCCN=S(C)(=O)c1cnc(N2CCN(C(C)c3ccc4c(c3)OCC4)CC2)nc1` (single isomer, unassigned) [Example 17], the IC50 in series [1] was under 50 nM. Moreover, the fraction unbound at 5 h, 1 µM in series [2] is 0.208.

Take `CN=S(C)(=O)c1ccc(N2CCN(C(C)c3ccc4c(c3)OCC4)CC2)nc1` (single isomer, unassigned) [Example 20, (6-(4-((S)-1-(2,3-dihydrobenzofuran-6-yl)ethyl)piperazin-1-yl)pyridin-3-yl)(methyl)(methylimino)-λ^6-sulfanone or (6-(4-((R)-1-(2,3-dihydrobenzofuran-6-yl)ethyl)piperazin-1-yl)pyridin-3-yl)(methyl)(methylimino)-λ^6-sulfanone]: in series [1], the IC50 is under 50 nM. In series [2], the fraction unbound at 5 h, 1 µM turned out to be 0.223.

For the compound `CC(c1ccc2scnc2c1)N1CCN(c2ncc(S(C)(=N)=O)cn2)CC1` (single isomer, unassigned) [Example 34, (2-(4-((S)-1-(benzo[d]thiazol-5-yl)ethyl)piperazin-1-yl)pyrimidin-5-yl)(imino)(methyl)-λ^6-sulfanone or (2-(4-((R)-1-(benzo[d]thiazol-5-yl)ethyl)piperazin-1-yl)pyrimidin-5-yl)(imino)(methyl)-λ^6-sulfanone], the IC50 in series [1] was under 50 nM. Further, in series [2], the fraction unbound at 5 h, 1 µM stood at 0.257.

Turning to `CC(c1ccc2scnc2c1)N1CCN(c2ncc(S(C)(=N)=O)cn2)CC1` (single isomer, unassigned) [Example 35], in series [1], the IC50 is under 50 nM. The “% fraction unbound in mouse plasma” value in series [2] stood at 33.7%.

`CC(c1ccc2scnc2c1)N1CCN(c2ncc(S(C)(=N)=O)cn2)CC1` (single isomer, unassigned) [Example 36]: the IC50 in series [1] is under 50 nM. In series [2], the “% fraction unbound in mouse plasma” value is 45.51%.

As to `CN=S(C)(=O)c1cnc(N2CCN(C(C)c3ccc4scnc4c3)CC2)nc1` (single isomer, unassigned) [Example 37], the IC50 in series [1] was under 50 nM. In addition, the fraction unbound at 5 h, 1 µM in series [2] was 0.278.

In the case of `Cc1nc2cc(C(C)N3CCN(c4ncc(S(C)(=N)=O)cn4)CC3)ccc2s1` (single isomer, unassigned) [Example 51], the concentration for half-maximal inhibition (IC50) in series [1] is under 50 nM. The fraction unbound at 5 h, 1 µM in series [2] was determined as 0.0838.

Consider `Cc1nc2cc(C(C)N3CCN(c4ncc(S(C)(=N)=O)cn4)CC3)ccc2s1` (single isomer, unassigned) [Example 53], for which, in series [1], the IC50 is under 50 nM. Besides, in series [2], the “% fraction unbound in mouse plasma” value is given as 12.81%.
